For test [1], the target named is FLT3 kinase (Homo sapiens (Human), UniProt P36888). The test can be described thus: Competition binding assay (Kd), FLT3. Conditions: competition binding assay.
The target in test [2] is KIT kinase (Homo sapiens (Human), UniProt P10721). The test can be described thus: Competition binding assay (Kd), KIT. Conditions: competition binding assay. Summed up:
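Kd derived from eleven-point threefold serial dilutions of compound competing with bead-bound ligand for kinase; bound kinase eluted and measured by quantitative PCR. Kinase supplied either as a T7 phage fusion or expressed in HEK-293 cells with a DNA tag; DMSO served as control.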

The target in test [3] is FLT3-ITD (Homo sapiens (Human), UniProt P36888, INS600HVDFREYEYD). Briefly: pFLT3 MSD assay, Ba/F3 FLT3-ITD. Particulars: Ba/F3 FLT3-ITD cells, 2 hours, read-out: BaF3-FLT3-ITD pFlt3 IC50. It counts as cell-based.
Sequence of FLT3-ITD (P36888 other isoform, or with tags, fused parts or gaps limits assumed, stated change not applied): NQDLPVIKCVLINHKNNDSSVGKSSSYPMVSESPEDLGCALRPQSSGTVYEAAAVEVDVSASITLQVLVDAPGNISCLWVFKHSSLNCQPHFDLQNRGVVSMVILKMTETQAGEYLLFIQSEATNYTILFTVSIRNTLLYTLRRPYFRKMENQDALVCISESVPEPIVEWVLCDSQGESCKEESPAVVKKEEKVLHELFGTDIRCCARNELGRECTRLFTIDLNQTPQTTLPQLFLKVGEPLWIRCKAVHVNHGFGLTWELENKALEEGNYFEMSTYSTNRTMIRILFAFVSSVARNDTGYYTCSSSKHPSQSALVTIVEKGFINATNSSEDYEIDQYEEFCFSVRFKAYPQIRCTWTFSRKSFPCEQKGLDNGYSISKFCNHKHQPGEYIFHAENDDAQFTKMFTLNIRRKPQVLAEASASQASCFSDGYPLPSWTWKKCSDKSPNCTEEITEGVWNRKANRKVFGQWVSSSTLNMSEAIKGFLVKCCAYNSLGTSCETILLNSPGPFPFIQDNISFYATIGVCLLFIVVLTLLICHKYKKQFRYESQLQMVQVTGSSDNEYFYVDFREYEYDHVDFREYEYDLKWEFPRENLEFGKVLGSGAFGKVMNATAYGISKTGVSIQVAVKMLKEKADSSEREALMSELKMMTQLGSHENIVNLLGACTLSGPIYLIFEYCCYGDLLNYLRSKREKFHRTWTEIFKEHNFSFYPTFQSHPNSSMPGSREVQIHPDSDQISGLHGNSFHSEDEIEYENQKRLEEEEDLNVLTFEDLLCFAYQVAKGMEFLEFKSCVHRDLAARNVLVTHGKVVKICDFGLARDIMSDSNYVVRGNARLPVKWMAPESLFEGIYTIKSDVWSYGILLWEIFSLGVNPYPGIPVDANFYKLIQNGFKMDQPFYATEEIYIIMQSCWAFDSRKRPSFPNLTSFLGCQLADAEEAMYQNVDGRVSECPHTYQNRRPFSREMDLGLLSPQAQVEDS

In US9725465B2, “Biaryl acetamide compounds and methods of use thereof” (Ambit Biosciences Corporation, priority 2013, dated 2017) one finds Kd and IC50 data, which are given here for 22 compounds.

The term Kd denotes the concentration at which binding is half-saturated. Low values mean a tighter complex, high ones a looser complex. What is called IC50 is the concentration that gives 50% inhibition.

Sequence of KIT kinase (P10721 26-976): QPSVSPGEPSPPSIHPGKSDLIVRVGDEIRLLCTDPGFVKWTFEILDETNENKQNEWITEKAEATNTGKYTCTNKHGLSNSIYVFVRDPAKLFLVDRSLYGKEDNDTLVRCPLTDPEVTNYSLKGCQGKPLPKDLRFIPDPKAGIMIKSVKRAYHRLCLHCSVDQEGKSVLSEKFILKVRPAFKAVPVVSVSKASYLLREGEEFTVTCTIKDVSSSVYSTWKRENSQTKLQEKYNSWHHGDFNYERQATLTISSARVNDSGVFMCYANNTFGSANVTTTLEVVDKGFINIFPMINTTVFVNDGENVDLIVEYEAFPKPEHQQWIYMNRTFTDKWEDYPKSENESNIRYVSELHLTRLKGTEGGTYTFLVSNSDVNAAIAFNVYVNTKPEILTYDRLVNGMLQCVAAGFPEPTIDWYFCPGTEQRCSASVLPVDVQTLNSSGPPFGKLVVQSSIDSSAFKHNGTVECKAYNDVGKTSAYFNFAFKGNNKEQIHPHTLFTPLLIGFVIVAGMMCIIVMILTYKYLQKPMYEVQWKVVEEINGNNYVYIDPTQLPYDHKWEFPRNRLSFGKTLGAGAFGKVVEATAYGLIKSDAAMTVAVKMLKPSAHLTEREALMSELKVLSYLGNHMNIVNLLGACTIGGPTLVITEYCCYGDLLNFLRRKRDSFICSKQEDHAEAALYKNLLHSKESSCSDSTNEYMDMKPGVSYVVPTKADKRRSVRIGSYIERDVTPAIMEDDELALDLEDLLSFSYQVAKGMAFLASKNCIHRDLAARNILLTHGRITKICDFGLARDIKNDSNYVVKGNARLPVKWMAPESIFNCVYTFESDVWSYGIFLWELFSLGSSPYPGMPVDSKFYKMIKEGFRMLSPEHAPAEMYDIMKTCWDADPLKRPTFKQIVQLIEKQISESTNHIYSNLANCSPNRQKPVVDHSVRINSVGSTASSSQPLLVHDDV
Sequence of FLT3 kinase (P36888 27-993): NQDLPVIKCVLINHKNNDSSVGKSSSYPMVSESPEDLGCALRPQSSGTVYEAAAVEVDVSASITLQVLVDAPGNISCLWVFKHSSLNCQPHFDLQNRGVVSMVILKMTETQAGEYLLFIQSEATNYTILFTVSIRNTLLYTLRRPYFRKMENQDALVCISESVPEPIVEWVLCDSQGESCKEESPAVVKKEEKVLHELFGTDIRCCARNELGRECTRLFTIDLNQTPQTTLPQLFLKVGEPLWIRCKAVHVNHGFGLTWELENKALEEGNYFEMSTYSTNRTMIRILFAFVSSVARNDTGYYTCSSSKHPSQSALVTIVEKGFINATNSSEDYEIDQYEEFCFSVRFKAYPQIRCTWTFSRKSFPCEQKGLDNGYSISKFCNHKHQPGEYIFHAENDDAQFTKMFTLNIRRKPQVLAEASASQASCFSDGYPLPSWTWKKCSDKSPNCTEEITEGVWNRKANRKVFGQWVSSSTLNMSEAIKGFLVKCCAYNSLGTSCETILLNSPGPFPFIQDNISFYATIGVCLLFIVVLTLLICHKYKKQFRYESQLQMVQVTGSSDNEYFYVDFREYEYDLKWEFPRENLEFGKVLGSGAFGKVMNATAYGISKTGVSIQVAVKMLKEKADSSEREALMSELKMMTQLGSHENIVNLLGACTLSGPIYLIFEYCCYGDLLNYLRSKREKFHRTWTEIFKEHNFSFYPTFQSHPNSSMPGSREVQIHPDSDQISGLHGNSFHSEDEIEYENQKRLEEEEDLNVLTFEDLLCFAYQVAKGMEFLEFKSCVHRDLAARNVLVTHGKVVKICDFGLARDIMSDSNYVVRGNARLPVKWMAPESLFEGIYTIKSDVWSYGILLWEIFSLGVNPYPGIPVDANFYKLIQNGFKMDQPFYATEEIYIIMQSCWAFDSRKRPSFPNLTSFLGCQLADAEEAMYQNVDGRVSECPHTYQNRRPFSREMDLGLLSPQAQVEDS

For the compound `O=C(Cc1ccc(-c2cnc3cc4c(cc3n2)OCCO4)cc1F)Nc1cc(C2(C(F)(F)F)CC2)on1` [Example 76, 2-(4-(2,3-dihydro-[1,4]dioxino[2,3-g]quinoxalin-7-yl)-2-fluorophenyl)-N-(5-(1-(trifluoromethyl)cyclopropyl)isoxazol-3-yl)acetamide], the results for the Kd in test [1] and in test [2] were less than 5 nM and 5 to 20 nM, respectively. In addition, the IC50 in test [3] is less than 10 nM.
Consider `COc1cc2nc(-c3ccc(CC(=O)Nc4cc(C5(C(F)(F)F)CC5)on4)c(F)c3)cnc2cc1O` [Example 78, 2-(2-fluoro-4-(6-hydroxy-7-methoxyquinoxalin-2-yl)phenyl)-N-(5-(1-(trifluoromethyl)cyclopropyl)isoxazol-3-yl)acetamide], for which the dissociation constant (Kd) in test [1] and in test [2] was less than 5 nM in each case. Further, in test [3], the IC50 is less than 10 nM.
For `COc1cc2nc(-c3ccc(CC(=O)Nc4cc(C5(C(F)(F)F)CC5)on4)c(F)c3)cnc2cc1OCCN1CCOCC1` [Example 79, 2-(2-fluoro-4-(7-methoxy-6-(2-morpholinoethoxy)quinoxalin-2-yl)phenyl)-N-(5-(1-(trifluoromethyl)cyclopropyl)isoxazol-3-yl)acetamide], the dissociation constant (Kd) in test [1] and in test [2] was less than 5 nM each time. The IC50 in test [3] was less than 10 nM.
Take `COc1cc2ncc(-c3ccc(CC(=O)Nc4cc(C5(C(F)(F)F)CC5)on4)c(F)c3)nc2cc1OCCO` [Example 80, 2-(2-fluoro-4-(7-(2-hydroxyethoxy)-6-methoxyquinoxalin-2-yl)phenyl)-N-(5-(1-(trifluoromethyl)cyclopropyl)isoxazol-3-yl)acetamide]: the Kd in test [1] and in test [2] was less than 5 nM throughout. Moreover, in test [3], the IC50 was less than 10 nM.
With `CCOc1cc2ncc(-c3ccc(CC(=O)Nc4cc(C5(C(F)(F)F)CC5)on4)c(F)c3)cc2cc1OC` [Example 86, 2-(4-(7-ethoxy-6-methoxyquinolin-3-yl)-2-fluorophenyl)-N-(5-(1-(trifluoromethyl)cyclopropyl)isoxazol-3-yl)acetamide], the Kd in test [1] and in test [2] was less than 5 nM each time. Also, the 50% inhibitory concentration (IC50) in test [3] was less than 10 nM.
Consider `COc1cc2cc(-c3ccc(CC(=O)Nc4cc(C5(C(F)(F)F)CC5)on4)c(F)c3)cnc2cc1OCCO` [Example 88, 2-(2-fluoro-4-(7-(2-hydroxyethoxy)-6-methoxyquinolin-3-yl)phenyl)-N-(5-(1-(trifluoromethyl)cyclopropyl)isoxazol-3-yl)acetamide], for which the Kd in test [1] and in test [2] was less than 5 nM each time. Moreover, in test [3], the IC50 is less than 10 nM.
On to `COc1cc2nc(-c3ccc(CC(=O)Nc4cc(C5(C(F)(F)F)CC5)on4)c(F)c3)cnc2cc1OC1CN(C)C1` [Example 90, 2-(2-fluoro-4-(7-methoxy-6-((1-methylazetidin-3-yl)oxy)quinoxalin-2-yl)phenyl)-N-(5-(1-(trifluoromethyl)cyclopropyl)isoxazol-3-yl)acetamide], for which the Kd in test [1] and in test [2] was less than 5 nM in each case. For the same compound, in test [3], the IC50 is less than 10 nM.
Consider `COc1cc2cc(-c3ccc(CC(=O)Nc4cc(C(C)(C)C(F)(F)F)on4)c(F)c3)cnc2cc1OCCO` [Example 91, 2-(2-fluoro-4-(7-(2-hydroxyethoxy)-6-methoxyquinolin-3-yl)phenyl)-N-(5-(1,1,1-trifluoro-2-methylpropan-2-yl)isoxazol-3-yl)acetamide], for which the Kd in test [1] and in test [2] was less than 5 nM each time. Further, the IC50 in test [3] was less than 10 nM.
In the case of `CC(C)(C)c1cc(NC(=O)Cc2ccc(-c3cnc4[nH]cc(C5(O)COC5)c4c3)cc2)no1` [Example 97, N-(5-tert-butylisoxazol-3-yl)-2-[4-[3-(3-hydroxyoxetan-3-yl)-1H-pyrrolo[2,3-b]pyridin-5-yl]phenyl]acetamide], the Kd in test [1] and in test [2] was less than 5 nM in each case. For the same compound, the IC50 in test [3] is less than 10 nM.
On to `O=C(Cc1ccc(-c2cnc3nn4c(c3c2)OC(CO)C4)cc1F)Nc1cc(C2(C(F)(F)F)CC2)on1` (stereo not drawn) [Example 98, 2-[2-fluoro-4-[2-(hydroxy-methyl)-2,3-dihydro-oxazolo[3,4]pyrazolo[1,3-b]pyridin-8-yl]phenyl]-N-[5-[1-(trifluoro-methyl)cyclopropyl]isoxazol-3-yl]acetamide], for which the Kd in test [1] and in test [2] was less than 5 nM throughout. Further, in test [3], the IC50 is less than 10 nM.
As for `CN1CCN(C(=O)c2cc3cc(-c4ccc(CC(=O)Nc5cc(C(C)(C)C)on5)cc4)cnc3[nH]2)CC1` [Example 99, N-(5-tert-butylisoxazol-3-yl)-2-[4-[2-(4-methylpiperazine-1-carbonyl)-1H-pyrrolo[2,3-b]pyridin-5-yl]phenyl]acetamide], the Kd in test [1] and in test [2] was less than 5 nM each time. In addition, the IC50 in test [3] is less than 10 nM.
In the case of `CN(C)CCNC(=O)c1n[nH]c2ncc(-c3ccc(CC(=O)Nc4cc(C(C)(C)C)on4)cc3)cc12` [Example 100, 5-[4-[2-[(5-tert-butylisoxazol-3-yl)amino]-2-oxo-ethyl]phenyl]-N-[2-(dimethylamino)ethyl]-1H-pyrazolo[3,4-b]pyridine-3-carboxamide], the Kd in test [1] was less than 5 nM; in test [2] it was 5 to 20 nM. Further, in test [3], the IC50 is less than 10 nM.
The corresponding values for `CC(C)(C)c1cc(NC(=O)Cc2ccc(-c3cnc4[nH]nc(-n5nccn5)c4c3)cc2)no1` [Example 101, N-(5-tert-butylisoxazol-3-yl)-2-[4-[3-(triazol-2-yl)-1H-pyrazolo[3,4-b]pyridin-5-yl]phenyl]acetamide] are less than 5 nM, less than 5 nM and less than 10 nM.
For the compound `O=C(Cc1ccc(-c2cnc3[nH]nc(OCC(F)F)c3c2)cc1F)Nc1cc(C2(C(F)(F)F)CC2)on1` [Example 102, 2-[4-[3-(2,2-difluoroethoxy)-1H-pyrazolo[3,4-b]pyridin-5-yl]-2-fluoro-phenyl]-N-[5-[1-(trifluoro-methyl)cyclopropyl]isoxazol-3-yl]acetamide], the Kd in test [1] and in test [2] was less than 5 nM throughout. For the same compound, the IC50 in test [3] is less than 10 nM.
Consider `CC(C)(C)c1cc(NC(=O)Cc2ccc(-c3cnc4[nH]nc(-n5ccnn5)c4c3)cc2)no1` [Example 103, N-(5-tert-butylisoxazol-3-yl)-2-[4-[3-(triazol-1-yl)-1H-pyrazolo[3,4-b]pyridin-5-yl]phenyl]acetamide], for which the Kd in test [1] and in test [2] was less than 5 nM throughout. Moreover, the IC50 in test [3] was less than 10 nM.
Consider `O=C(Cc1ccc(-c2cnc3[nH]nc(OCCF)c3c2)cc1F)Nc1cc(C2(C(F)(F)F)CC2)on1` [Example 104, 2-[2-fluoro-4-[3-(2-fluoroethoxy)-1H-pyrazolo[3,4-b]pyridin-5-yl]phenyl]-N-[5-[1-(trifluoro-methyl)cyclopropyl]isoxazol-3-yl]acetamide], for which the Kd in test [1] and in test [2] was less than 5 nM each time. For the same compound, the IC50 in test [3] was less than 10 nM.
As for `O=C(Cc1ccc(-c2cnc3[nH]c(C(=O)O)cc3c2)cc1F)Nc1cc(C2(C(F)(F)F)CC2)on1` [Example 106, 5-[3-fluoro-4-[2-oxo-2-[[5-[1-(trifluoromethyl)cyclo-propyl]isoxazol-3-yl]amino]ethyl]phenyl]-1H-pyrrolo[2,3-b]pyridine-2-carboxylic acid], the Kd in test [1] and in test [2] was less than 5 nM each time. In test [3], the IC50 was 10 to 20 nM.
With `CS(=O)(=O)CCNC(=O)c1cc2cc(-c3ccc(CC(=O)Nc4cc(C5(C(F)(F)F)CC5)on4)c(F)c3)cnc2[nH]1` [Example 107, 5-[3-fluoro-4-[2-oxo-2-[[5-[1-(trifluoromethyl)cyclo-propyl]isoxazol-3-yl]amino]ethyl]phenyl]-N-(2-methylsulfonylethyl)-1H-pyrrolo[2,3-b]pyridine-2-carboxamide], the Kd in test [1] and in test [2] was less than 5 nM in each case. For the same compound, in test [3], the IC50 was less than 10 nM.
`CN(C)CCNC(=O)c1cc2cc(-c3ccc(CC(=O)Nc4cc(C5(C(F)(F)F)CC5)on4)c(F)c3)cnc2[nH]1` [Example 108, N-[2-(dimethylamino)ethyl]-5-[3-fluoro-4-[2-oxo-2-[[5-[1-(trifluoromethyl)cyclo-propyl]isoxazol-3-yl]amino]ethyl]phenyl]-1H-pyrrolo[2,3-b]pyridine-2-carboxamide]: the Kd in test [1] and in test [2] was less than 5 nM in each case. The IC50 in test [3] is less than 10 nM.
As to `Cn1cc(-c2n[nH]c3ncc(-c4ccc(CC(=O)Nc5cc(C(C)(C)C)on5)cc4)cc23)cn1` [Example 109, N-(5-tert-butylisoxazol-3-yl)-2-[4-[3-(1-methylpyrazol-4-yl)-1H-pyrazolo[3,4-b]pyridin-5-yl]phenyl]acetamide], the dissociation constant (Kd) in test [1] and in test [2] was less than 5 nM in each case. In addition, the IC50 in test [3] is less than 10 nM.
Consider `CN(C)C1CCN(C(=O)c2cc3cc(-c4ccc(CC(=O)Nc5cc(C6(C(F)(F)F)CC6)on5)c(F)c4)cnc3[nH]2)C1` (stereo not drawn) [Example 110, 2-[4-[2-[3-(dimethylamino)pyrrolidine-1-carbonyl]-1H-pyrrolo[2,3-b]pyridin-5-yl]-2-fluoro-phenyl]-N-[5-[1-(trifluoro-methyl)cyclopropyl]isoxazol-3-yl]acetamide], for which the Kd in test [1] and in test [2] was less than 5 nM each time. Also, the IC50 in test [3] was less than 10 nM.
As to `O=C(Cc1ccc(-c2cnc3[nH]c(C(=O)N4CC(O)C4)cc3c2)cc1F)Nc1cc(C2(C(F)(F)F)CC2)on1` [Example 111, 2-[2-fluoro-4-[2-(3-hydroxyazetidine-1-carbonyl)-1H-pyrrolo[2,3-b]pyridin-5-yl]phenyl]-N-[5-[1-(trifluoro-methyl)cyclopropyl]isoxazol-3-yl]acetamide], the Kd in test [1] and in test [2] was less than 5 nM in each case. In addition, in test [3], the IC50 was less than 10 nM.
